Results from PubChem BioAssay AID248 (DTP/NCI, 2004).
Several values for one entry are separate records, joined by “and”; a condition that tells them apart may be missing. Identical values can stand only once. Inconclusive results and toxic doses are left out. Cut-off read from the data, not from the text of the source: active = T/C of 150% or more; inactive = T/C below 125%.

Tested on: L1210 leukemia ip in BDF1 mice, survival T/C
Assay: NCI In Vivo Anticancer Drug Screen. Data for tumor model L1210 Leukemia (intraperitoneal) in B6D2F1 (BDF1) mice
Conditions: endpoint: mean survival time, higher = longer survival
Procedure, shortened: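 Read-out is survival time, reported as the treated-group measurement over the vehicle-control measurement.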

[1] = dose: 100.0 mg/kg/injection, schedule: Q01DX009 (ip), vehicle: Klucel (hydroxypropylcellulose) (HPC)
[2] = dose: 100.0 mg/kg/injection, schedule: Q04DX003 (ip), vehicle: Klucel (hydroxypropylcellulose) (HPC)
[3] = dose: 200.0 mg/kg/injection, schedule: Q01DX009 (ip), vehicle: Klucel (hydroxypropylcellulose) (HPC)
[4] = dose: 200.0 mg/kg/injection, schedule: Q04DX003 (ip), vehicle: Klucel (hydroxypropylcellulose) (HPC)
[5] = dose: 400.0 mg/kg/injection, schedule: Q01DX009 (ip), vehicle: Klucel (hydroxypropylcellulose) (HPC)
[6] = dose: 400.0 mg/kg/injection, schedule: Q04DX003 (ip), vehicle: Klucel (hydroxypropylcellulose) (HPC)
[7] = dose: 100.0 mg/kg/injection, schedule: Q01DX001 (ip), vehicle: saline
[8] = dose: 100.0 mg/kg/injection, schedule: Q04DX003 (ip), vehicle: saline
[9] = dose: 200.0 mg/kg/injection, schedule: Q01DX001 (ip), vehicle: saline
[10] = dose: 200.0 mg/kg/injection, schedule: Q04DX003 (ip), vehicle: saline
[11] = dose: 400.0 mg/kg/injection, schedule: Q01DX001 (ip), vehicle: saline
[12] = dose: 100.0 mg/kg/injection, schedule: Q01DX001 (ip), vehicle: Klucel (hydroxypropylcellulose) (HPC)
[13] = dose: 200.0 mg/kg/injection, schedule: Q01DX001 (ip), vehicle: Klucel (hydroxypropylcellulose) (HPC)
[14] = dose: 400.0 mg/kg/injection, schedule: Q01DX001 (ip), vehicle: Klucel (hydroxypropylcellulose) (HPC)
[15] = dose: 100.0 mg/kg/injection, schedule: Q01DX009 (ip), vehicle: saline with Tween-80
[16] = dose: 200.0 mg/kg/injection, schedule: Q01DX009 (ip), vehicle: saline with Tween-80
[17] = dose: 25.0 mg/kg/injection, schedule: Q01DX009 (ip), vehicle: other
[18] = dose: 50.0 mg/kg/injection, schedule: Q01DX009 (ip), vehicle: other
[19] = dose: 100.0 mg/kg/injection, schedule: Q01DX009 (ip), vehicle: other

Measured: T/C

CC1(C)Cc2cccc(OC(N)=O)c2O1
inactive: dose: 1.56 mg/kg/injection, schedule: Q04DX003 (ip), vehicle: Klucel (hydroxypropylcellulose) (HPC) 94 % of control | dose: 3.13 mg/kg/injection, schedule: Q04DX003 (ip), vehicle: Klucel (hydroxypropylcellulose) (HPC) 103 % of control | dose: 6.25 mg/kg/injection, schedule: Q04DX003 (ip), vehicle: Klucel (hydroxypropylcellulose) (HPC) 104 % of control

CC(=O)c1cccc(NC(=O)Nc2ccccc2)c1
inactive: [1] 94 % of control | [2] 100 % of control | [3] 98 % of control | [4] 96 % of control | [5] 100 % of control | [6] 97 % of control

C=CCc1ccc(OC(=O)Nc2ccc(S(=O)(=O)N3CCCCC3)cc2)c(OC)c1
inactive: dose: 12.5 mg/kg/injection, schedule: Q01DX001 (ip), vehicle: other 98 % of control | dose: 25.0 mg/kg/injection, schedule: Q01DX001 (ip), vehicle: other 90 % of control | dose: 50.0 mg/kg/injection, schedule: Q01DX001 (ip), vehicle: other 90 % of control

O=C1CSC2=NCCN12
inactive: [7] 99 % of control | [8] 93 % of control | [9] 99 % of control | [10] 98 % of control | [11] 92 % of control

O=C(O)c1cccc(Br)c1
inactive: dose: 100.0 mg/kg/injection, schedule: Q04DX002 (ip), vehicle: Klucel (hydroxypropylcellulose) (HPC) 102 % of control | dose: 200.0 mg/kg/injection, schedule: Q04DX002 (ip), vehicle: Klucel (hydroxypropylcellulose) (HPC) 98 % of control | dose: 400.0 mg/kg/injection, schedule: Q04DX002 (ip), vehicle: Klucel (hydroxypropylcellulose) (HPC) 102 % of control

CN(C)C(=O)NS(=O)(=O)c1ccc(Cl)cc1
inactive: [2] 91 % of control | [4] 96 % of control | [6] 95 % of control

O=C(Nc1ncccn1)Nc1ccccc1C(F)(F)F
inactive: dose: 100.0 mg/kg/injection, schedule: Q01DX009 (ip), vehicle: gum acacia 88 % of control | dose: 200.0 mg/kg/injection, schedule: Q01DX009 (ip), vehicle: gum acacia 86 % of control | dose: 400.0 mg/kg/injection, schedule: Q01DX009 (ip), vehicle: gum acacia 88 % of control

COC(=O)C1CCC2C3CCC4CC(O)CCC4(C)C3CCC12C (configuration not stated)
inactive: [12] 110 % of control | [13] 100 % of control | [14] 95 % of control

NCc1nc(C(=O)O)cs1
inactive: [7] 110 % of control | dose: 100.0 mg/kg/injection, schedule: Q01DX009 (ip), vehicle: saline 91 % of control | [8] 116 % of control | [9] 102 % of control | dose: 200.0 mg/kg/injection, schedule: Q01DX009 (ip), vehicle: saline 87 % of control | [10] 112 % of control | [11] 112 % of control | dose: 400.0 mg/kg/injection, schedule: Q01DX009 (ip), vehicle: saline 86 % of control | dose: 400.0 mg/kg/injection, schedule: Q04DX003 (ip), vehicle: saline 96 % of control

CCOC(=O)c1ccc(NC(=O)Nc2cccc(O)c2)cc1
inactive: dose: 100.0 mg/kg/injection, schedule: Q01DX001 (ip), vehicle: saline with Tween-80 89 % of control | [15] 95 % of control | dose: 100.0 mg/kg/injection, schedule: Q04DX002 (ip), vehicle: saline with Tween-80 99 % of control and 110 % of control | dose: 100.0 mg/kg/injection, schedule: Q04DX003 (ip), vehicle: saline with Tween-80 95 % of control | dose: 200.0 mg/kg/injection, schedule: Q01DX001 (ip), vehicle: saline with Tween-80 98 % of control | [16] 99 % of control | dose: 200.0 mg/kg/injection, schedule: Q04DX002 (ip), vehicle: saline with Tween-80 99 % of control and 106 % of control | dose: 200.0 mg/kg/injection, schedule: Q04DX003 (ip), vehicle: saline with Tween-80 93 % of control | dose: 400.0 mg/kg/injection, schedule: Q01DX001 (ip), vehicle: saline with Tween-80 94 % of control | dose: 400.0 mg/kg/injection, schedule: Q01DX009 (ip), vehicle: saline with Tween-80 95 % of control | dose: 400.0 mg/kg/injection, schedule: Q04DX002 (ip), vehicle: saline with Tween-80 103 % of control and 104 % of control | dose: 400.0 mg/kg/injection, schedule: Q04DX003 (ip), vehicle: saline with Tween-80 94 % of control

N#C/C(=C\c1ccccc1Cl)c1cccc(Cl)c1
inactive: [17] 107 % of control | [18] 96 % of control | [19] 93 % of control and 90 % of control

CCOCC(=O)CC1CCCC1
inactive: dose: 50.0 mg/kg/injection, schedule: Q01DX009 (ip), vehicle: saline with Tween-80 103 % of control | [15] 100 % of control | [16] 95 % of control

COC1CCC2(C)C(=CCC3C2CCC2(C)C(C(C)CCCC(C)C)CCC32)C1 (configuration not stated)
inactive: [12] 97 % of control | [13] 94 % of control | [14] 94 % of control

O=C(NCc1ccc(S(=O)(=O)F)cc1)Oc1ccc([N+](=O)[O-])cc1
inactive: [17] 100 % of control | [18] 88 % of control | [19] 98 % of control and 87 % of control

O=C(Nc1ccccc1F)Oc1ccc(OCc2ccccc2)cc1
inactive: [1] 101 % of control | [3] 101 % of control | [5] 101 % of control

CC(=O)CCCCCCCCCCC1CCC2OC12 (configuration not stated)
inactive: dose: 100.0 mg/kg/injection, schedule: Q01DX001 (ip), vehicle: other 101 % of control | dose: 100.0 mg/kg/injection, schedule: Q01DX009 (sc), vehicle: other 109 % of control | dose: 100.0 mg/kg/injection, schedule: Q04DX003 (ip), vehicle: other 95 % of control | dose: 200.0 mg/kg/injection, schedule: Q01DX001 (ip), vehicle: other 115 % of control | dose: 200.0 mg/kg/injection, schedule: Q01DX009 (sc), vehicle: other 98 % of control | dose: 200.0 mg/kg/injection, schedule: Q04DX003 (ip), vehicle: other 94 % of control | dose: 400.0 mg/kg/injection, schedule: Q01DX001 (ip), vehicle: other 106 % of control | dose: 400.0 mg/kg/injection, schedule: Q01DX009 (sc), vehicle: other 97 % of control | dose: 400.0 mg/kg/injection, schedule: Q04DX003 (ip), vehicle: other 102 % of control

Oc1c(Br)cc(-c2ccccc2)cc1Br
inactive: dose: 100.0 mg/kg/injection, schedule: Q04DX002 (ip), vehicle: gum acacia 95 % of control | dose: 200.0 mg/kg/injection, schedule: Q04DX002 (ip), vehicle: gum acacia 95 % of control | dose: 400.0 mg/kg/injection, schedule: Q04DX002 (ip), vehicle: gum acacia 103 % of control

Cc1cc[n+]([O-])nc1N(C)N
inactive: dose: 50.0 mg/kg/injection, schedule: Q04DX002 (ip), vehicle: saline 101 % of control | dose: 100.0 mg/kg/injection, schedule: Q04DX002 (ip), vehicle: saline 104 % of control | dose: 200.0 mg/kg/injection, schedule: Q04DX002 (ip), vehicle: saline 96 % of control

CC(C)(CO)N(CC(=O)O)CC(=O)O
inactive: [7] 101 % of control | [9] 103 % of control
